Values after ≈ are worked out from the molar mass of the structure shown.
Assays:
[1] = system: Enterococcus faecalis ATCC 19433; assay: Inhibition of bacterial growth in culture, spiral gradient endpoint assay (MIC); assay type: cell-based; details: for MIC: Enterococcus faecalis, ATCC 19433 /, 16 h, read-out: MIC E. faecalis, Mueller-Hinton II agar, 16 h at 37° C.
From the text: J. Microbiol. Meths. […] Int. J. Exp. Clin. Chemother. […] Adv.

[2] = system: Staphylococcus aureus ATCC 12600; assay: as above; details: Staphylococcus aureus, ATCC12600, 16 h, read-out: MIC S. aureus 12600, Mueller-Hinton II agar, 16 h at 37° C.
[3] = system: Escherichia coli D21f2tolC; assay: microbe, parasite or virus in culture; details: 16 h, read-out: MIC E. coli D21f2tolC, Mueller-Hinton II agar, 16 h at 37° C.

SMILES | MIC [1] | MIC [2] | MIC [3] | MIC E. faecalis H37Rv ([1]; Mueller-Hinton II agar, 16 h at 37° C.)
CCCC1(CCC)C(=O)C(C(=O)C2CC2c2ccc(Oc3ccccc3)cc2)=C(O)C=C1O (stereo not drawn) [Example 60, 3,5-dihydroxy-2-(2-(4-phenoxyphenyl)cyclopropanecarbonyl)-6,6-dipropylcyclohexa-2,4-dien-1one] | > 40 µg/mL | 10 µg/mL (≈ 22.4 µM) | 3.9 µg/mL (≈ 8.73 µM) | 
CCC1=C(O)C(CC)(CC)C(=O)C(C(=O)CCc2ccc(Oc3ccc(F)cc3)cc2)=C1O [Example 61, 4,6,6-triethyl-2-(3-(4-(4-fluorophenoxy)phenyl)propanoyl)-3,5-dihydroxycyclohexa-2,4-dienone] | 0.44 µg/mL (≈ 0.972 µM) | 0.56 µg/mL (≈ 1.24 µM) | 0.24 µg/mL (≈ 0.53 µM) | 
CCC1=C(O)C(CC)(CC)C(=O)C(C(=O)C2CC2c2ccc(Oc3ccc(F)cc3)cc2)=C1O (stereo not drawn) [Example 62, 4,6,6-triethyl-2-(2-(4-(4-fluorophenoxy)phenyl)cyclopropanecarbonyl)-3,5-dihydroxycyclohexa-2,4-dienone] | 0.51 µg/mL (≈ 1.1 µM) | 0.4 µg/mL (≈ 0.861 µM) | 0.28 µg/mL (≈ 0.603 µM) | 
CCCC1(CCC)C(=O)C(C(=O)CCc2ccc(Oc3ccc(F)cc3)cc2)=C(O)C=C1O [Example 63, 2-(3-(4-(4-fluorophenoxy)phenyl)propanoyl)-3,5-dihydroxy-6,6-dipropylcyclohexa-2,4-dienone] | > 40 µg/mL | 5.1 µg/mL (≈ 11.3 µM) | 2.4 µg/mL (≈ 5.3 µM) | 
CCCC1=C(O)C(CCC)(CCC)C(=O)C(C(=O)CCc2ccc(Oc3ccc(F)cc3)cc2)=C1O [Example 64, 2-(3-(4-(4-fluorophenoxy)phenyl)propanoyl)-3,5-dihydroxy-4,6,6-tripropylcyclohexa-2,4-dienone] | 0.34 µg/mL (≈ 0.687 µM) | 0.26 µg/mL (≈ 0.526 µM) | 0.34 µg/mL (≈ 0.687 µM) | 
CCCC1(CCC)C(=O)C(C(=O)C2CC2c2ccc(Oc3ccc(F)cc3)cc2)=C(O)C=C1O (stereo not drawn) [Example 65, 2-(2-(4-(4-fluorophenoxy)phenyl)cyclopropanecarbonyl)-3,5-dihydroxy-6,6-dipropylcyclohexa-2,4-dienone] | 1.9 µg/mL (≈ 4.09 µM) | 1.9 µg/mL (≈ 4.09 µM) | > 40 µg/mL | 
CCCC1=C(O)C(CCC)(CCC)C(=O)C(C(=O)C2CC2c2ccc(Oc3ccc(F)cc3)cc2)=C1O (stereo not drawn) [Example 66, 2-(2-(4-(4-fluorophenoxy)phenyl)cyclopropanecarbonyl)-3,5-dihydroxy-4,6,6-tripropylcyclohexa-2,4-dienone] | 0.55 µg/mL (≈ 1.09 µM) | 0.16 µg/mL (≈ 0.316 µM) | 0.72 µg/mL (≈ 1.42 µM) | 
CCCC1=C(O)C(CCC)(CCC)C(=O)C(C(=O)CCc2ccc(Oc3ccc(F)cc3)cc2C(F)(F)F)=C1O [Example 68, 2-(3-(4-(4-fluorophenoxy)-2-(trifluoromethyl)phenyl)propanoyl)-3,5-dihydroxy-4,6,6-tripropylcyclohexa-2,4-dienone] | 1.3 µg/mL (≈ 2.31 µM) | 0.6 µg/mL (≈ 1.07 µM) | 1.5 µg/mL (≈ 2.67 µM) | 
CCCC1=C(O)C(CCC)(CCC)C(=O)C(C(=O)CCc2ccc(Oc3ccc(F)cc3)cc2C)=C1O [Example 69, 2-(3-(4-(4-fluorophenoxy)-2-methylphenyl)propanoyl)-3,5-dihydroxy-4,6,6-tripropylcyclohexa-2,4-dienone] | 1.4 µg/mL (≈ 2.75 µM) | 1.1 µg/mL (≈ 2.16 µM) | 1.1 µg/mL (≈ 2.16 µM) | 
CCCC1=C(O)C(CCC)(CCC)C(=O)C(C(=O)C2CC2c2ccc(Oc3ccc(F)cc3)cc2C(F)(F)F)=C1O (stereo not drawn) [Example 70, 2-(2-(4-(4-fluorophenoxy)-2-(trifluoromethyl)phenyl)cyclopropanecarbonyl)-3,5-dihydroxy-4,6,6-tripropylcyclohexa-2,4-dienone] | 1.2 µg/mL (≈ 2.09 µM) | 1.5 µg/mL (≈ 2.61 µM) | 8.2 µg/mL (≈ 14.3 µM) | 
CCCC1=C(O)C(CCC)(CCC)C(=O)C(C(=O)C2CC2c2ccc(Oc3ccc(F)cc3)cc2C)=C1O (stereo not drawn) [Example 71, 2-(2-(4-(4-fluorophenoxy)-2-methylphenyl)cyclopropanecarbonyl)-3,5-dihydroxy-4,6,6-tripropylcyclohexa-2,4-dienone] | 2.1 µg/mL (≈ 4.03 µM) | 0.9 µg/mL (≈ 1.73 µM) | 2.3 µg/mL (≈ 4.42 µM) | 
CCC1=C(O)C(CC)(CC)C(=O)C(C(=O)C2CC2c2ccc(Oc3ccc(F)cc3)cc2C(F)(F)F)=C1O (stereo not drawn) [Example 72, 4,6,6-triethyl-2-(2-(4-(4-fluorophenoxy)-2-(trifluoromethyl)phenyl)cyclopropanecarbonyl)-3,5-dihydroxycyclohexa-2,4-dienone] | > 40 µg/mL | 6.5 µg/mL (≈ 12.2 µM) | 1.6 µg/mL (≈ 3 µM) | 
CCC1=C(O)C(CC)(CC)C(=O)C(C(=O)CCc2ccc(Oc3ccc(F)cc3)cc2C(F)(F)F)=C1O [Example 73, 4,6,6-triethyl-2-(3-(4-(4-fluorophenoxy)-2-(trifluoromethyl)phenyl)propanoyl)-3,5-dihydroxycyclohexa-2,4-dienone] | 1.6 µg/mL (≈ 3.07 µM) | 1.5 µg/mL (≈ 2.88 µM) | 1.2 µg/mL (≈ 2.31 µM) | 
CCC1=C(O)C(CC)(CC)C(=O)C(C(=O)CCc2ccc(Oc3ccc(F)cc3)cc2C)=C1O [Example 74, 4,6,6-triethyl-2-(3-(4-(4-fluorophenoxy)-2-methylphenyl)propanoyl)-3,5-dihydroxycyclohexa-2,4-dienone] | 11 µg/mL (≈ 23.6 µM) | 1.7 µg/mL (≈ 3.64 µM) | 0.9 µg/mL (≈ 1.93 µM) | 
CC1=C(O)C(C)(C)C(=O)C(C(=O)C2CC2c2ccc(Oc3ccc(F)cc3)cc2C)=C1O (stereo not drawn) [Example 75, 2-(2-(4-(4-fluorophenoxy)-2-methylphenyl)cyclopropanecarbonyl)-3,5-dihydroxy-4,6,6-trimethylcyclohexa-2,4-dienone] | > 40 µg/mL | 17 µg/mL (≈ 38.9 µM) | 5.1 µg/mL (≈ 11.7 µM) | 
CC1=C(O)C(C)(C)C(=O)C(C(=O)C2CC2c2ccc(Cl)cc2C(F)(F)F)=C1O (stereo not drawn) [Example 76, 2-(2-(4-chloro-2-(trifluoromethyl)phenyl)cyclopropanecarbonyl)-3,5-dihydroxy-4,6,6-trimethylcyclohexa-2,4-dienone] | > 40 µg/mL | 12 µg/mL (≈ 28.9 µM) | 3.1 µg/mL (≈ 7.47 µM) | 
CC1=C(O)C(C)(C)C(=O)C(C(=O)C2CC2c2ccc(Cl)cc2C)=C1O (stereo not drawn) [Example 77, 2-(2-(4-chloro-2-methylphenyl)cyclopropanecarbonyl)-3,5-dihydroxy-4,6,6-trimethylcyclohexa-2,4-dienone] | > 40 µg/mL | > 40 µg/mL | 7.4 µg/mL (≈ 20.5 µM) | 
CC1=C(O)C(C)(C)C(=O)C(C(=O)CCc2ccc(Oc3ccc(F)cc3)cc2)=C1O [Example 78, 2-(3-(4-(4-fluorophenoxy)phenyl)propanoyl)-3,5-dihydroxy-4,6,6-trimethylcyclohexa-2,4-dienone] | > 40 µg/mL | > 40 µg/mL | 6.5 µg/mL (≈ 15.8 µM) | 
CCCC1=C(O)C(CCC)(CCC)C(=O)C(C(=O)C2CC2c2ccc(Cl)cc2)=C1O (stereo not drawn) [Example 79, 2-(2-(4-chlorophenyl)cyclopropanecarbonyl)-3,5-dihydroxy-4,6,6-tripropylcyclohexa-2,4-dienone] | 0.61 µg/mL (≈ 1.42 µM) | 0.27 µg/mL (≈ 0.626 µM) | 0.15 µg/mL (≈ 0.348 µM) | 
CCCC1=C(O)C(CCC)(CCC)C(=O)C(C(=O)C2CC2c2ccc(Cl)cc2C(F)(F)F)=C1O (stereo not drawn) [Example 80, 2-(2-(4-chloro-2-(trifluoromethyl)phenyl)cyclopropanecarbonyl)-3,5-dihydroxy-4,6,6-tripropylcyclohexa-2,4-dienone] | 0.42 µg/mL (≈ 0.842 µM) | 0.14 µg/mL (≈ 0.281 µM) | 0.33 µg/mL (≈ 0.661 µM) | 
CCC1=C(O)C(CC)(CC)C(=O)C(C(=O)C2CC2c2ccc(Cl)cc2)=C1O (stereo not drawn) [Example 81, 2-(2-(4-chlorophenyl)cyclopropanecarbonyl)-4,6,6-triethyl-3,5-dihydroxycyclohexa-2,4-dienone] |  | 4.5 µg/mL (≈ 11.6 µM) | 2.2 µg/mL (≈ 5.66 µM) | 11 µg/mL (≈ 28.3 µM)

From patent US10450292B2, “Inhibitors of bacterial RNA polymerase: arylpropanoyl, arylpropenoyl, and arylcyclopropanecarboxyl phloroglucinols” (Rutgers, The State University of New Jersey, priority 2015, dated 2019)
